Laboratory results published in patent US6562783B2, “Phosphinylmethyl and phosphorylmethyl succinic and glutauric acid analogs as β-secretase inhibitors” (Neurologic, Inc., priority 2001, dated 2003).

Test system: sAPP secretion
Test: Enhancement of sAPP secretion (immunoblot with 6E10 antibody, densitometry)
Format: cell-based, Human
Conditions: compound at 10 μM; FIG. 4
Description: Determination of the enhancement of sAPP secretion promoted by LQ-β series of compounds:
Human fibroblasts were obtained from the Coriell Cell Repositories (Camden, N.J.). Four AD cell lines (AG06848, AG04401, AG07377, AG06263) and four age-matched control cell lines (AG07141, AG06241, AG08044, AG04560) were grown to confluence in T75 cell culture flasks. Additional information about these cell lines can be found in the Catalog of Cell Lines from the National Institute of Aging. (National Institute of Aging, Catalog of Cell Lines (1994)). The culture medium was DMEM supplemented with 10% serum (FBS, Gibco). PC12 cells were obtained from the American Cell Culture Collection and grown to confluence in T75 flasks containing DMEM supplemented with 5% FBS (Gibco), 10% horse serum (Biofluids) and 1% of a mixture of penicillin (5,000 units/ml in G sodium) and streptomycin (5,000 μg/ml).
Cells in T-75 were seeded into 100 mm cell culture plates and allowed to grow for 2 days. […]
Conventional immunoblotting techniques were employed. […] Horseradish peroxidase bound signal was detected using an enhanced chemiluminescence followed by exposure to Hyperfilm ECL (Amersham). The band intensities were quantified by densitometric analyses using a BioRad GS-710 Scanning Densitometer and Multianalyst software (BioRad).

Compound: O=C(O)CC(CP(=O)(O)O)C(=O)N1CCN(C(=O)OCCOc2ccccc2)CC1 (stereo not shown) [LQ-∃1, 4-(2-Carboxymethyl-3-phosphono-propionyl)-piperazine-1-carboxylic acid 2-phenoxy-ethyl ester]
- effect on sAPP secretion compared to vehicle (DMSO) alone: marked effect of enhancing secretion
